# Activity calls are given as the source filed them. No rule for the calls is given here.
# Biological target: Peptidyl-prolyl cis-trans isomerase FKBP1A (Homo sapiens) (UniProt P62942)
# Experiment: FKBP12 binders, biophysical, NMR detection (AID 608)
# Conditions: NMR binding, purified FKBP12
# Chain of Peptidyl-prolyl cis-trans isomerase FKBP1A (Homo sapiens) (P62942 whole entry, looked up): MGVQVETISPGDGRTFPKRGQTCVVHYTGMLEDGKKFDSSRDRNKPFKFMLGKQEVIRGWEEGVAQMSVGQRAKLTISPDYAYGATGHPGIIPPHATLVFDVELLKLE
row,Structure (SMILES),Kd
1,CC(=O)Nc1ccc2c(c1)n(C)c(=O)n2C,> 4 mM (inactive)
2,CC1(NC(=O)NCc2ccccc2)CCS(=O)(=O)C1 (configuration not stated),> 4 mM (inactive)
3,CC(C)CCCC(C)[C@H]1CCC2C3CC[C@H]4CC(=O)CC[C@]4(C)C3CC[C@@]21C (some centres not stated),> 4 mM (inactive)
4,COCc1cc(=O)oc2cc(N)ccc12,> 4 mM (inactive)
5,O=S(=O)(c1ccc(F)c(Cl)c1)N1CCCC1,> 4 mM (inactive)
6,Nc1ncnc(Nc2ccccc2C(F)(F)F)n1,> 4 mM (inactive)
7,NC1=NC(=O)/C(=C/c2cccc([N+](=O)[O-])c2)S1,> 4 mM (inactive)
8,CC(=O)c1cc(C)ccc1O,> 4 mM (inactive)
9,Cn1nnc2cc(C(=O)Nc3cccnc3)ccc21,> 4 mM (inactive)
10,COc1ccc2c(c1)OCc1c-2oc2cc(OC)ccc12,> 4 mM (inactive)
11,NC(=O)NC1NC(=O)NC1=O (configuration not stated),> 4 mM (inactive)
12,C=CCCCCCCCCCCCc1ccco1,> 4 mM (inactive)
13,CSc1nnc2c(n1)OC=Nc1ccccc1-2,> 4 mM (inactive)
14,COCc1nn2c(N)c(C#N)cnc2c1-c1ccccc1,> 4 mM (inactive)
15,O=C(NCc1cccs1)c1nn2cccnc2c1Cl,> 4 mM (inactive)
16,CC(=O)c1csc(-c2cc(C)on2)n1,> 4 mM (inactive)
17,CSc1ccccc1C(=O)N1CCOCC1,> 4 mM (inactive)
18,NCc1ccc(N2CCOCC2)cc1,> 4 mM (inactive)
19,COc1ccc(-c2coc3cc(OC(C)=O)cc(OC(C)=O)c3c2=O)cc1,> 4 mM (inactive)
20,O=C(c1ccco1)N1CCN(c2ccc(Cl)cc2)CC1,> 4 mM (inactive)
21,Cc1cc(SCCF)n2ncnc2n1,> 4 mM (inactive)

row,Structure (SMILES),Kd
1,CC(C)CCCC(C)C1CCC2C3CC(=O)[C@H]4C[C@@H](O)CC[C@]4(C)C3CC[C@]12C (some centres not stated),> 4 mM (inactive)
2,Cc1cc(C(=O)N2CCN(c3ccccn3)CC2)c(C)o1,> 4 mM (inactive)
3,Nc1ccc2ncsc2c1,> 4 mM (inactive)
4,O=C(CN1CCOCC1)Nc1cccc(Br)c1,> 4 mM (inactive)
5,C=C1C[C@]23C[C@@]1(O)CC[C@H]2[C@@]12C=C[C@H](O)C(C)(C(=O)O1)[C@H]2[C@@H]3C(=O)O,> 4 mM (inactive)
6,Cc1cc(C)cc(OC(=O)N2CCOCC2)c1,> 4 mM (inactive)
7,OC[C@H]1O[C@@](CO)(O[C@@H]2O[C@H](CO)[C@@H](O)[C@H](O)[C@H]2O)[C@@H](O[C@@H]2O[C@H](CO)[C@@H](O)[C@H](O)[C@H]2O)[C@@H]1O,> 4 mM (inactive)
8,CC1CCc2cc(F)ccc2N1C(=O)c1ccc(=O)[nH]n1 (configuration not stated),> 4 mM (inactive)
9,O=C(NC(=O)N1CCOCC1)c1ccccc1,> 4 mM (inactive)
10,O=C1COc2ccc(C(=O)c3ccccc3)cc2CN1,> 4 mM (inactive)
11,NC(=O)N1CCc2ccccc21,> 4 mM (inactive)
12,COc1cccc(N2CCNCC2)c1,> 4 mM (inactive)
13,COC(=O)c1ccc2nsnc2c1,> 4 mM (inactive)
14,OCc1cccs1,> 4 mM (inactive)
15,CCOC(=O)c1c(C)n([O-])c2ccccc2[n+]1=O,> 4 mM (inactive)
16,CC1(c2ccncc2)NC(=O)NC1=O (configuration not stated),> 4 mM (inactive)
17,O=C(O)C1(O)C[C@@H](O)C(O)[C@H](O)C1 (some centres not stated),> 4 mM (inactive)
18,NCc1cccc2c1OCCO2,> 4 mM (inactive)
19,CC(=O)Nc1ccc(S(=O)(=O)NC(N)=O)cc1,> 4 mM (inactive)
20,O=C(O)CN1C(=O)c2ccc(C(=O)O)cc2C1=O,> 4 mM (inactive)
21,O=C(CN1C(=O)CCC1=O)c1ccccc1,> 4 mM (inactive)

row,Structure (SMILES),Kd
1,O=C(O)c1ccc2c(c1)OCO2,> 4 mM (inactive)
2,Cc1cc(C)c(-c2cc(C(F)(F)F)no2)c(=O)[nH]1,> 4 mM (inactive)
3,CCOc1cc(C)c(Cl)cc1S(=O)(=O)N(C)C,> 4 mM (inactive)
4,CN1CC(=O)N=C1N,> 4 mM (inactive)
5,COc1cccc(/C=C2/SC(N)=NC2=O)c1,> 4 mM (inactive)
6,O=c1c2ccccc2nc(-c2ccco2)n1-c1nccs1,> 4 mM (inactive)
7,c1ccc2[nH]c(NCCN3CCOCC3)nc2c1,> 4 mM (inactive)
8,CC(=O)c1c(C)nc2ccccc2c1N,> 4 mM (inactive)
9,O=C(O)CCCCCCCCCCCCC1C=CCC1 (configuration not stated),> 4 mM (inactive)
10,C[C@H]1[C@H]2CCC3C4CC=C5C[C@@H](N(C)C)CC[C@]5(C)C4CC[C@@]32CN1C (some centres not stated),> 4 mM (inactive)
11,O=C1CNc2cc(C(=O)O)ccc2N1,> 4 mM (inactive)
12,OCc1ccccc1CN1CCOCC1,> 4 mM (inactive)
13,COC(=O)c1sc(N)nc1C,> 4 mM (inactive)
14,O=C1CN(C(=O)c2ccccc2)c2ccccc2N1,> 4 mM (inactive)
15,CNC(=O)C(=O)NCc1ccc(C)cc1,> 4 mM (inactive)
16,O=C(c1cccnc1Cl)N1CCOCC1,> 4 mM (inactive)
17,ON=c1ccc2nc3ccccc3nc2cc1,> 4 mM (inactive)
18,COc1ccc(NC(=O)CSc2nccc(=O)[nH]2)cc1,> 4 mM (inactive)
19,NC(=O)CSc1nnc2ccc3ccccc3n12,> 4 mM (inactive)
20,CC(C)=CC(=O)Nc1ccc2c(c1)OCO2,> 4 mM (inactive)
